# Test results as given in patent US12599672B2, “KRAS proteolysis targeting chimeras” (PAQ Therapeutics Inc., priority 2023, dated 2026).
# Experiments:
# KRAS G12D = molecular target: T1, KRAS G12D (Homo sapiens, UniProt P01116, G12D); assay: KRAS G12D HiBit assay; format: cell-based; conditions: AsPc-1-KRAS (G12D)-HiBit-KI cell, compound treatment for 24 hours, absolute DC50
# T1 construct: AsPc-1-KRAS (G12D)-HiBit-KI cell (Pharmaron); host or cells: AsPc-1-KRAS (G12D)-HiBit-KI cells (HiBiT knock-in at the endogenous KRAS locus)
# Procedure, shortened: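 Cells were treated for 24 h with compounds in a 3-fold, 10-point dilution series from a 0.3 mM DMSO stock, then equilibrated 15 min at room temperature. KRAS G12D HiBiT levels were read by luminescence after lytic Nano-Glo HiBiT reagent with LgBiT; inhibition calculated relative to 0.1% DMSO high control.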
# KRAS G12V = molecular target: T2, KRAS G12V (Homo sapiens, UniProt P01116, G12V); assay: KRAS G12V HiBit assay; format: cell-based; conditions: SW620-KRAS (G12V)-HiBit-KI cells, compound treatment for 24 hours, class symbols
# T2 construct: SW620-KRAS (G12V)-HiBit-KI cell (Pharmaron); host or cells: SW620-KRAS (G12V)-HiBit-KI cells (HiBiT knock-in at the endogenous KRAS locus)
# Procedure, shortened: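 HiBiT-tagged KRAS G12V cells treated 24 h with compound in a 3-fold, 10-point series (0.3 mM DMSO stock); lytic HiBiT reagent with LgBiT added after 15 min room-temperature equilibration. Degradation calculated against 0.1% DMSO high control.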
# [1] = numeric bounds given in place of class symbols
# T1 sequence (P01116 1-188 isoform P01116-2 G12D): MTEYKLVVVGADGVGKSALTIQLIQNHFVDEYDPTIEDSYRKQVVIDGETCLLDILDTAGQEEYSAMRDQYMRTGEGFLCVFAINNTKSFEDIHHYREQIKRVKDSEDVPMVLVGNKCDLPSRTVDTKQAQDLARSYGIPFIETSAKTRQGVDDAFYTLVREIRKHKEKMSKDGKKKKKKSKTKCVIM
# T2 sequence (P01116 1-188 isoform P01116-2 G12V): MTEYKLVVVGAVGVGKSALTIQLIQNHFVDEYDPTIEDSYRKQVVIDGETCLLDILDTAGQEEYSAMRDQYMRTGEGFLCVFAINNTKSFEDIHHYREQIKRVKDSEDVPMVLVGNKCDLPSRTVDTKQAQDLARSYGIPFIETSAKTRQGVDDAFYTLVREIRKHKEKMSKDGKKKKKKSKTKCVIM
SMILES,DC50 (KRAS G12D; [1]) [nM],DC50 (KRAS G12V) [nM],DC50 (KRAS G12D; class symbols) [nM]
"CCc1c(F)ccc2cc(O)cc(-c3ccc4c(N5CCC[C@@](C)(O)C5)nc(OC[C@]56CCCN5[C@H](COC(=O)N5CCC(CN7CCC(c8ccc9c(c8)n(C)c(=O)n9C8CCC(=O)NC8=O)CC7)CC5)CC6)nc4c3F)c12 (stereo partly drawn) [Compound 318, ((3S,7aR)-7a-(((7-(8-ethyl-7-fluoro-3-hydroxynaphthalen-1-yl)-8-fluoro-4-((R)-3-hydroxy-3-methylpiperidin-1-yl)quinazolin-2-yl)oxy)methyl)hexahydro-1H-pyrrolizin-3-yl)methyl 4-((4-(1-(2,6-dioxopiperidin-3-yl)-3-methyl-2-oxo-2,3-dihydro-1H-benzo[d]imidazol-5-yl)piperidin-1-yl)methyl)piperidine-1-carboxylate]",> 100,> 100,–
"CCc1c(F)ccc2cc(O)cc(-c3ccc4c(N5CCC[C@@](C)(O)C5)nc(OC[C@@]56CCCN5[C@@H](COC(=O)N5CCC(CN7CCC(c8ccc9c(c8)n(C)c(=O)n9C8CCC(=O)NC8=O)CC7)CC5)CC6)nc4c3F)c12 (stereo partly drawn) [Compound 319, ((3R,7aS)-7a-(((7-(8-ethyl-7-fluoro-3-hydroxynaphthalen-1-yl)-8-fluoro-4-((R)-3-hydroxy-3-methylpiperidin-1-yl)quinazolin-2-yl)oxy)methyl)hexahydro-1H-pyrrolizin-3-yl)methyl 4-((4-(1-(2,6-dioxopiperidin-3-yl)-3-methyl-2-oxo-2,3-dihydro-1H-benzo[d]imidazol-5-yl)piperidin-1-yl)methyl)piperidine-1-carboxylate]",> 100,> 100,–
"Cn1c(=O)n(C2CCC(=O)NC2=O)c2ccc(C3CCN(C4CC5(CCN(C(=O)OC[C@@H]6CC[C@]7(COc8nc(N9CCC[C@@](C)(O)C9)c9cnc(-c%10cc(O)cc%11cccc(Cl)c%10%11)c(F)c9n8)CCCN67)CC5)C4)CC3)cc21 (stereo partly drawn) [Compound 338, ((3S,7aS)-7a-(((7-(8-chloro-3-hydroxynaphthalen-1-yl)-8-fluoro-4-((R)-3-hydroxy-3-methylpiperidin-1-yl)pyrido[4,3-d]pyrimidin-2-yl)oxy)methyl)hexahydro-1H-pyrrolizin-3-yl)methyl 2-(4-(1-(2,6-dioxopiperidin-3-yl)-3-methyl-2-oxo-2,3-dihydro-1H-benzo[d]imidazol-5-yl)piperidin-1-yl)-7-azaspiro[3.5]nonane-7-carboxylate]",–,< 10,< 100
"CCc1c(F)ccc2cc(O)cc(-c3ncc4c(N5CCC[C@H]5CO)nc(OC[C@@]56CCCN5[C@H](COC(=O)N5CCC7(CC5)CC(N5CCC(c8ccc9c(c8)n(C)c(=O)n9C8CCC(=O)NC8=O)CC5)C7)CC6)nc4c3F)c12 (stereo partly drawn) [Compound 351, ((3S,7aS)-7a-(((7-(8-ethyl-7-fluoro-3-hydroxynaphthalen-1-yl)-8-fluoro-4-((S)-2-(hydroxymethyl)pyrrolidin-1-yl)pyrido[4,3-d]pyrimidin-2-yl)oxy)methyl)hexahydro-1H-pyrrolizin-3-yl)methyl 2-(4-(1-(2,6-dioxopiperidin-3-yl)-3-methyl-2-oxo-2,3-dihydro-1H-benzo[d]imidazol-5-yl)piperidin-1-yl)-7-azaspiro[3.5]nonane-7-carboxylate]",–,< 10,< 100
"CCc1c(F)ccc2cc(O)cc(-c3ncc4c(N5CCC[C@@H]5CO)nc(OC[C@@]56CCCN5[C@H](COC(=O)N5CCC7(CC5)CC(N5CCC(c8ccc9c(c8)n(C)c(=O)n9C8CCC(=O)NC8=O)CC5)C7)CC6)nc4c3F)c12 (stereo partly drawn) [Compound 352, ((3S,7aS)-7a-(((7-(8-ethyl-7-fluoro-3-hydroxynaphthalen-1-yl)-8-fluoro-4-((R)-2-(hydroxymethyl)pyrrolidin-1-yl)pyrido[4,3-d]pyrimidin-2-yl)oxy)methyl)hexahydro-1H-pyrrolizin-3-yl)methyl 2-(4-(1-(2,6-dioxopiperidin-3-yl)-3-methyl-2-oxo-2,3-dihydro-1H-benzo[d]imidazol-5-yl)piperidin-1-yl)-7-azaspiro[3.5]nonane-7-carboxylate]",–,< 10,< 100
"CCc1c(F)ccc2cc(O)cc(-c3ncc4c(N5CCC[C@H](O)C5)nc(OC[C@@]56CCCN5[C@H](COC(=O)N5CCC7(CC5)CC(N5CCC(c8ccc9c(c8)n(C)c(=O)n9C8CCC(=O)NC8=O)CC5)C7)CC6)nc4c3F)c12 (stereo partly drawn) [Compound 354, ((3S,7aS)-7a-(((7-(8-ethyl-7-fluoro-3-hydroxynaphthalen-1-yl)-8-fluoro-4-((S)-3-hydroxypiperidin-1-yl)pyrido[4,3-d]pyrimidin-2-yl)oxy)methyl)hexahydro-1H-pyrrolizin-3-yl)methyl 2-(4-(1-(2,6-dioxopiperidin-3-yl)-3-methyl-2-oxo-2,3-dihydro-1H-benzo[d]imidazol-5-yl)piperidin-1-yl)-7-azaspiro[3.5]nonane-7-carboxylate]",–,< 10,< 100
"CCc1c(F)ccc2cc(O)cc(-c3ncc4c(N5CCC(O)CC5)nc(OC[C@@]56CCCN5[C@H](COC(=O)N5CCC7(CC5)CC(N5CCC(c8ccc9c(c8)n(C)c(=O)n9C8CCC(=O)NC8=O)CC5)C7)CC6)nc4c3F)c12 (stereo partly drawn) [Compound 358, ((3S,7aS)-7a-(((7-(8-ethyl-7-fluoro-3-hydroxynaphthalen-1-yl)-8-fluoro-4-(4-hydroxypiperidin-1-yl)pyrido[4,3-d]pyrimidin-2-yl)oxy)methyl)hexahydro-1H-pyrrolizin-3-yl)methyl 2-(4-(1-(2,6-dioxopiperidin-3-yl)-3-methyl-2-oxo-2,3-dihydro-1H-benzo[d]imidazol-5-yl)piperidin-1-yl)-7-azaspiro[3.5]nonane-7-carboxylate]",–,< 10,< 100

# Now from value to compound:
DC50 (KRAS G12D; [1]) [nM],DC50 (KRAS G12V) [nM],DC50 (KRAS G12D; class symbols) [nM],SMILES
–,< 10,< 100,"CCc1c(F)ccc2cc(O)cc(-c3ncc4c(N5CCC[C@@](C)(O)C5)nc(OC[C@@]56CCCN5[C@H](COC(=O)N5CCC(N7CC8(CCN(c9ccc%10c(c9)n(C)c(=O)n%10C9CCC(=O)NC9=O)CC8)C7)CC5)CC6)nc4c3F)c12 (stereo partly drawn) [Compound 362, ((3S,7aS)-7a-(((7-(8-ethyl-7-fluoro-3-hydroxynaphthalen-1-yl)-8-fluoro-4-((R)-3-hydroxy-3-methylpiperidin-1-yl)pyrido[4,3-d]pyrimidin-2-yl)oxy)methyl)hexahydro-1H-pyrrolizin-3-yl)methyl 4-(7-(1-(2,6-dioxopiperidin-3-yl)-3-methyl-2-oxo-2,3-dihydro-1H-benzo[d]imidazol-5-yl)-2,7-diazaspiro[3.5]nonan-2-yl)piperidine-1-carboxylate]"
–,< 10,< 100,"CCc1c(F)ccc2cc(O)cc(-c3ncc4c(N5CCC[C@@](C)(O)C5)nc(OC[C@@]56CCCN5[C@H](COC(=O)N5CCC(N7CC8(CCC(c9ccc%10c(c9)n(C)c(=O)n%10C9CCC(=O)NC9=O)CC8)C7)CC5)CC6)nc4c3F)c12 (stereo partly drawn) [Compound 363, ((3S,7aS)-7a-(((7-(8-ethyl-7-fluoro-3-hydroxynaphthalen-1-yl)-8-fluoro-4-((R)-3-hydroxy-3-methylpiperidin-1-yl)pyrido[4,3-d]pyrimidin-2-yl)oxy)methyl)hexahydro-1H-pyrrolizin-3-yl)methyl 4-(7-(1-(2,6-dioxopiperidin-3-yl)-3-methyl-2-oxo-2,3-dihydro-1H-benzo[d]imidazol-5-yl)-2-azaspiro[3.5]nonan-2-yl)piperidine-1-carboxylate]"
–,< 10,< 100,"CCc1c(F)ccc2cc(O)cc(-c3ncc4c(N5CCC[C@@](C)(O)C5)nc(OC[C@@]56CCCN5[C@H](COC(=O)N5CCC(CN7CC8(CCC(c9ccc%10c(c9)n(C)c(=O)n%10C9CCC(=O)NC9=O)CC8)C7)CC5)CC6)nc4c3F)c12 (stereo partly drawn) [Compound 364, ((3S,7aS)-7a-(((7-(8-ethyl-7-fluoro-3-hydroxynaphthalen-1-yl)-8-fluoro-4-((R)-3-hydroxy-3-methylpiperidin-1-yl)pyrido[4,3-d]pyrimidin-2-yl)oxy)methyl)hexahydro-1H-pyrrolizin-3-yl)methyl 4-((7-(1-(2,6-dioxopiperidin-3-yl)-3-methyl-2-oxo-2,3-dihydro-1H-benzo[d]imidazol-5-yl)-2-azaspiro[3.5]nonan-2-yl)methyl)piperidine-1-carboxylate]"
–,< 10,< 100,"CCc1c(F)ccc2cc(O)cc(-c3ncc4c(N5CCC[C@@](C)(O)C5)nc(OC[C@@]56CCCN5[C@H](COC(=O)N5CCC(N7CC8(CC(c9ccc%10c(c9)n(C)c(=O)n%10C9CCC(=O)NC9=O)C8)C7)CC5)CC6)nc4c3F)c12 (stereo partly drawn) [Compound 365, ((3S,7aS)-7a-(((7-(8-ethyl-7-fluoro-3-hydroxynaphthalen-1-yl)-8-fluoro-4-((R)-3-hydroxy-3-methylpiperidin-1-yl)pyrido[4,3-d]pyrimidin-2-yl)oxy)methyl)hexahydro-1H-pyrrolizin-3-yl)methyl 4-(6-(1-(2,6-dioxopiperidin-3-yl)-3-methyl-2-oxo-2,3-dihydro-1H-benzo[d]imidazol-5-yl)-2-azaspiro[3.3]heptan-2-yl)piperidine-1-carboxylate]"
